Results: PMC6042793 (PLoS ONE, 2018)

Key:
[1] = system: sialidase activity of A/Shizuoka/17/2016 (H1N1pdm); assay type: biochemical, influenza A virus (H1N1pdm); settings: pH 6.5
[2] = system: sialidase activity of A/Shizuoka/19/2016 (H1N1pdm); assay type: biochemical, influenza A virus (H1N1pdm); settings: pH 6.5
[3] = target: sialidase activity of A/Puerto Rico/8/1934 (H1N1) (Influenza A virus, UniProt P03468); assay type: biochemical; settings: pH 6.5
[4] = target: sialidase activity of B/Lee/1940 (Influenza B virus, UniProt P03474); assay type: biochemical; settings: pH 6.5
[5] = target: S. pneumoniae sialidase activity (Streptococcus pneumoniae, UniProt P62575); assay type: biochemical; design: key to Test result in the BTP3-based filter method in the presence of NAI: -, not detected; settings: for NAI susceptibility in the BTP3-based filter method (fluorescence in the presence of NAI): pH 6.5, 56°C 15 min
[6] = system: sialidase activity of A/Memphis/1/1971 (H3N2); assay type: biochemical, influenza A virus (H3N2); settings: pH 6.5
MuV sialidase activity = MuV sialidase activity (Mumps virus genotype B, UniProt P11235); assay type: biochemical
MuV sialidase activity, sequence (P11235 whole entry): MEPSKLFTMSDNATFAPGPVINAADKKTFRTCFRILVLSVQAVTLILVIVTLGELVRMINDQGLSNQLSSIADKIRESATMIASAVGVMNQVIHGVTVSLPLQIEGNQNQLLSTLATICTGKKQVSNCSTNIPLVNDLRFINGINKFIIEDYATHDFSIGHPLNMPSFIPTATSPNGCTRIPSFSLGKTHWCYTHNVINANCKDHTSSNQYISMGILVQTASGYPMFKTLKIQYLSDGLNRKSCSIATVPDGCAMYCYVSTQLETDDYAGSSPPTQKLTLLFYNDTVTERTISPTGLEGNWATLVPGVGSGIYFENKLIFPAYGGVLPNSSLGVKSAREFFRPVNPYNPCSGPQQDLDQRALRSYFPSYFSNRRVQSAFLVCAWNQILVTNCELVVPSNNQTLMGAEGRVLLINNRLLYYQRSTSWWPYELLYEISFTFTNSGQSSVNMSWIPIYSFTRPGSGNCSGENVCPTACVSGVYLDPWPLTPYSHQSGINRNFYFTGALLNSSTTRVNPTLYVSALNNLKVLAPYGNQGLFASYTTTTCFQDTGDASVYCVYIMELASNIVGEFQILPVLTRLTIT

S. pneumoniae sialidase activity, sequence (P62575 54-1035): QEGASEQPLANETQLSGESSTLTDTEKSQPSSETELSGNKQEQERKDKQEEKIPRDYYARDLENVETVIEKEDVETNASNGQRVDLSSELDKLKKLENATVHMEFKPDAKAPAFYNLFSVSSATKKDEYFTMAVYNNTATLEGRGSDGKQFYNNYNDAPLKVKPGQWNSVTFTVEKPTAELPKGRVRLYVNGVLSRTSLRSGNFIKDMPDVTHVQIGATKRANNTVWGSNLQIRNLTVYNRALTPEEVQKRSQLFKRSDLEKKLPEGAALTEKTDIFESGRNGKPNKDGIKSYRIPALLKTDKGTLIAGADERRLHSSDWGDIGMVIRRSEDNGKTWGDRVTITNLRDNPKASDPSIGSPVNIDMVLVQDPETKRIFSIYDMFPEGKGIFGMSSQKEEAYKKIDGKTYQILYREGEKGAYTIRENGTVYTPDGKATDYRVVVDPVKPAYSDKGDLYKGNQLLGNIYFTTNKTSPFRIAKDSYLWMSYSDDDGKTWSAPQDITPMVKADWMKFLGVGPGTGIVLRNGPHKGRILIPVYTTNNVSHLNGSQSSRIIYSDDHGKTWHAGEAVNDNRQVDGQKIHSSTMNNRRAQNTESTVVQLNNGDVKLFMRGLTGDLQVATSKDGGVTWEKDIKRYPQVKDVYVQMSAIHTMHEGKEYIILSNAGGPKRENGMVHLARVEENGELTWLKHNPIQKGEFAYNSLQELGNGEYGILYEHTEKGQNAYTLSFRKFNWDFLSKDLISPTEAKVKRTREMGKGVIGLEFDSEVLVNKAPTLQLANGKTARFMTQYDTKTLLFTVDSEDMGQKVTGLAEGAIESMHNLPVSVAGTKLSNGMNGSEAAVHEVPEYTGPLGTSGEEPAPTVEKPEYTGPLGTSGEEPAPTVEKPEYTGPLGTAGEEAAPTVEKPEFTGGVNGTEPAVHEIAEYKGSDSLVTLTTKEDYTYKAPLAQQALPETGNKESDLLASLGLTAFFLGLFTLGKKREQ
sialidase activity of B/Lee/1940, sequence (P03474 whole entry): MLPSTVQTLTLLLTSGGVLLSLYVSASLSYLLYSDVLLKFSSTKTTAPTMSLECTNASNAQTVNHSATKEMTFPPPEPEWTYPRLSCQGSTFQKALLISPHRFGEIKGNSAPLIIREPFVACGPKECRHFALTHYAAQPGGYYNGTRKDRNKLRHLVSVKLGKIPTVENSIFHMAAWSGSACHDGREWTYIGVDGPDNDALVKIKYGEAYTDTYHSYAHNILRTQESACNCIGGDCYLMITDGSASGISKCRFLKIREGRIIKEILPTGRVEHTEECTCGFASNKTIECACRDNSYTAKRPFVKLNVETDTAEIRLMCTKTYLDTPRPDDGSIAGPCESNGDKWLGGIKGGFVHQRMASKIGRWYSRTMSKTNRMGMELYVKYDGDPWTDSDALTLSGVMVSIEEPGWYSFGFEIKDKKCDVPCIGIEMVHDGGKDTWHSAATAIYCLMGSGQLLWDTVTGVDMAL
sialidase activity of A/Puerto Rico/8/1934 (H1N1), sequence (P03468 whole entry, looked up): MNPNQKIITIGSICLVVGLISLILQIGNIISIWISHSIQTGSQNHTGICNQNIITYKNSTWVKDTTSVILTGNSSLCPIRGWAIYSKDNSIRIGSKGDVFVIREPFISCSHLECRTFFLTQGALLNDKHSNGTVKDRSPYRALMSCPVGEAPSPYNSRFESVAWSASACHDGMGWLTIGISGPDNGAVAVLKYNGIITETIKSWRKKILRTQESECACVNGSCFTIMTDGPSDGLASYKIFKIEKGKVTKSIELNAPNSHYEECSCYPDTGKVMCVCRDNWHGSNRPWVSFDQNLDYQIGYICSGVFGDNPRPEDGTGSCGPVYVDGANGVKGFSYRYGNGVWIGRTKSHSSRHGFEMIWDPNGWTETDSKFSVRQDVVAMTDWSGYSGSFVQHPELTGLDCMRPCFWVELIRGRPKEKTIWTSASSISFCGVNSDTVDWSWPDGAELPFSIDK

| SMILES | BTP3 fluorescence on the membrane in the presence of NAI [1] | BTP3 fluorescence on the membrane in the presence of NAI [2] | BTP3 fluorescence on the membrane in the presence of NAI [3] | BTP3 fluorescence on the membrane in the presence of NAI [4] | Test result in the BTP3-based filter method in the presence of NAI [5] | NAI susceptibility in the BTP3-based filter method (fluorescence in the presence of NAI) [5] | BTP3 fluorescence on the membrane in the presence of NAI [6] | Test result in the BTP3-based filter method in the presence of NAI (MuV sialidase activity) |
| --- | --- | --- | --- | --- | --- | --- | --- | --- |
| [H]/N=C(\N)N[C@H]1C=C(C(=O)O)O[C@@H]([C@H](OC)[C@H](O)CO)[C@@H]1NC(C)=O [LV, laninamivir] | not observed | not observed | not observed | not observed | Positive | showed fluorescence | not observed | Positive |
| CCOC(=O)C1=C[C@@H](OC(CC)CC)[C@H](NC(C)=O)[C@@H](N)C1 [OV, oseltamivir] | not observed | not observed | not observed | not observed | - | susceptible | not observed | Positive |
| CCC(CC)[C@H](NC(C)=O)[C@@H]1[C@H](O)[C@@H](C(=O)O)C[C@H]1N=C(N)N [PV, peramivir] | not observed | not observed | not observed | not observed | Positive | showed fluorescence | not observed | Positive |
| CC(=O)N[C@H]1[C@H]([C@H](O)[C@H](O)CO)OC(C(=O)O)=C[C@@H]1N=C(N)N [ZV, zanamivir] | not observed | not observed |  |  | Positive | showed fluorescence | not observed | Positive |
